Key:
[1] = tested on: hepatocarcinoma HepG2; experiment: Safety, LDH test in HepG2; assay type: cell-based; settings: 48 hours, vs Triton X-100
Experimental: (§1) In order to test the safety of the compounds, both normal human cells were used: keratinocytes (HaCaT), fibroblasts (BJ), primary melanocytes that occur in the skin, as well as human cancer cells: the hepatocarcinoma line HepG2 and the neuroblastoma line SH-SY5Y, which are considered a model for the assessment of hepatocytotoxicity and neurocytotoxicity. The concentrations of the tested compounds in the range of […] were used in the studies. The cell lines used in the research were purchased from the American Type Culture Collection (ATCC) and were cultured in media recommended by the manufacturer with the addition of FBS and antibiotics in an incubator ensuring appropriate culture conditions, i.e. humidity, temperature and CO2 concentration. Cells were seeded into multiwell plates and incubated with the test compounds for 48 hours. After this time, MTT and LDH tests were performed to assess cell viability. The MTT test is based on the ability to transform the substrate: [3-(4,5-dimethyl-2-thiazolyl)-2,5-diphenyl-2H-tetrazolium bromide into a colored product only by living cells. The absorbance at 570 nm, which corresponds to the absorption maximum for the product, is directly proportional to cell viability. The LDH test is based on testing the activity of the enzyme lactate dehydrogenase in the culture medium, which is released from cells as a result of damage to the cell membrane, e.g. as a result of cell death. Triton X-100 was used as a positive control in the test. The determination is colorimetric, the substrate is transformed by the released enzyme into a colored product, an increase in absorbance indicates a larger amount of the released enzyme, and thus confirms greater damage to cell membranes. Tables 7 and 8 present the results obtained, which correspond to the viability of cells incubated with the compounds in relation to the viability of cells constituting a control sample, i.e. incubated with the solvent (DMSO) at the same concentration as in the case of the groups tested in the MTT test or in relation to the results obtained for the Triton X-100 positive control in the LDH test. They indicate that the compounds are safe at the concentrations tested.

[2] = tested on: human reconstructed epidermis model EpiDerm; experiment: Extended skin irritation test in reconstructed human epidermis EpiDerm; assay type: cell-based; settings: 1.0% in 50% PEG (10 μL)
Experimental: Extended Skin Irritation Tests on Reconstructed Human Epidermis-Exposure Time Extended to 7 Days.
In order to perform extended skin irritation (safety) tests on the reconstructed human epidermis, the exposure time to the tested compounds was extended to 2 and 7 days in the human reconstructed epidermis model EpiDerm™ from MatTek. The epidermis was cultured according to the manufacturer's recommendations, using appropriate multi-well plates and culture media. Solutions of the tested compounds were applied to the epidermis using a positive displacement pipette and distributed using a sterile glass bulb headed Pasteur pipette. […] The epidermis was cultured in an incubator ensuring appropriate humidity, temperature (37° C.) and CO2 concentration (5%). The medium was replaced daily. After an appropriate incubation time, i.e. 2 days or 7 days, the epidermis was rinsed with sterile DPBS and incubated with MTT (Thiazolyl Blue Tetrazolium bromide) solution at 37° C. for 3 hours. After this time, a purple color of formazan was observed, correlated with tissue viability. […] Moreover, in the medium collected after the first 24 hours of EpiDerm epidermis culture, the level of interleukin 1α (Il-1α), which is a mediator of inflammation, was determined. Its level correlates with the unfavorable (irritating) effect of the tested substances on the epidermis. The level of IL-1α was determined using the Cayman Elisa test.

[3] = tested on: neuroblastoma SH-SY5Y; experiment: Safety, MTT test in SH-SY5Y; assay type: cell-based; settings: 48 hours
Experimental: as §1

[4] = tested on: reconstructed human epidermis containing melanocytes MelanoDerm MEL-300-B; experiment: Melanogenesis inhibition in reconstructed human epidermis containing melanocytes (MelanoDerm); assay type: cell-based; settings: 1.0% in 50% PEG (10 μL), 14 days, MTT
Experimental: Melanogenesis Inhibition Studies in a Model of Reconstructed Human Epidermis Containing Melanocytes (MelanoDerm by Mattek).
The research was carried out on reconstructed human epidermis containing melanocytes MelanoDerm™ MEL-300-B from MatTek (Bratislava, Slovakia). The ratio of keratinocytes to melanocytes in the epidermis used is 10:1. Only medium purchased from the same manufacturer (EPI-100-NMM-113) was used to culture the epidermis during the experiments. Once the epidermis was obtained, it was transferred to 12-well plates containing 5 mL of medium/well. Plates were used to enable proper contact of the lower parts of the inserts with the substrate (so-called hanging-top plate). Solutions of the compounds were prepared immediately before their application. The solutions were applied to the inserts using a positive displacement pipette and then distributed using a sterile glass bulb headed Pasteur pipette. The application was repeated every 48 hours, a total of 7 applications were performed. Before the next application, each insert was rinsed with sterile DPBS and dried with a sterile cotton buds. The application was also accompanied by a change of the medium. […] The epidermis was cultured in an incubator ensuring appropriate humidity, temperature (37° C.) and CO2 concentration (5%).
The experiment was conducted for 14 days. After this time, the inserts were rinsed with DPBS and dried with a cotton swab. For the selected pool of inserts, tissue viability was assessed using the MTT (Thiazolyl Blue Tetrazolium bromide) test, the remaining ones were used to determine the amount of melanin. To assess viability, the inserts were transferred to 24-well plate containing 0.3 mL of DMEM medium with 1 mg/mL MTT and incubated for 3 hours in an incubator. The epidermis was then placed in 2 mL of isopropanol and the resulting formazan was extracted for 2 hours at room temperature. The absorbance of the samples was measured at 570 nm in a microplate reader and correlated with the absorbance of the control by the formula: % Viability=[OD (570 nm) for test compound/OD (570 nm) for control]×100. To determine the amount of melanin, the inserts were incubated in 5% sodium bicarbonate for 30 min, then dried and placed in 0.5 mL of Solvable™ reagent, which caused complete lysis of the epidermis. After heating at 95° C., the absorbance of the samples was measured at 405 nm in a microplate reader. On this basis, the reduction in the amount of melanin was calculated in relation to the control sample. The absorbance results were also correlated with a standard curve for synthetic melanin.

[5] = tested on: fibroblasts (BJ); experiment: Safety, LDH test in fibroblasts; assay type: cell-based; settings: 48 hours, vs Triton X-100
Experimental: as §1

[6] = tested on: S. typhimurium TA1535; experiment: Ames microplate test, TA1535;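 also: bacteria exposed 90 min at 37 °C in exposure medium, then 48 h in indicator medium in 384-well plates, yellow (revertant) wells counted per condition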
Experimental: The study used the Ames microplate test (Ames MPF™ Penta 2 by Xenometrix, Allschwil, Switzerland). Growth medium, exposure medium, indicator medium, positive controls, hepatic microsomal fraction, NADP, glucose-6-phosphate, Salmonella typhimurium and Escherichia coli strains were components of the purchased experimental kit. Bacteria were grown overnight in growth medium. They were then exposed to the test compound at the appropriate concentration in exposure medium without or with the rat microsomal fraction S9 in 24-well plates for 90 min at 37° C. with shaking. Then, indicator medium was added to the wells and pipetted into 384-well plates, which were incubated for 48 hours at 37° C. without shaking. Results were assessed by counting the wells in which the medium turned yellow for each experimental condition.

O=C(/C=C/c1ccccc1)NCCCCCO [Compound A-133, (2E)-N-(5-hydroxypentyl)-3-phenylprop-2-enamide]
LDH, Hepatocarcinoma HepG2 ([1]; 100 μM): 5.31 percentage of positive control
LDH, Hepatocarcinoma HepG2 ([1]; 150 μM): 7.07 percentage of positive control
LDH, Hepatocarcinoma HepG2 ([1]; 200 μM): 9.65 percentage of positive control
LDH, Hepatocarcinoma HepG2 ([1]; 250 μM): 16.13 percentage of positive control
Viability [% of control, mean ± SD] 2 days [2]: 107.19 ± 7.45 % of control
Viability [% of control, mean ± SD] 7 days [2]: 107.26 ± 21.82 % of control
Il-1α in culture medium ([2]; medium after first 24 hours): 34.99 ± 1.17 pg/mL
MTT, Neuroblastoma SH-SY5Y ([3]; 100 μM): 101.50 ± 3.33 % of solvent control
MTT, Neuroblastoma SH-SY5Y ([3]; 150 μM): 100.75 ± 3.01 % of solvent control
MTT, Neuroblastoma SH-SY5Y ([3]; 200 μM): 100.62 ± 5.99 % of solvent control
MTT, Neuroblastoma SH-SY5Y ([3]; 250 μM): 100.41 ± 1.87 % of solvent control
Viability [% control, mean ± SD] [4]: 101.22 ± 6.52 % control
LDH, Fibroblasts (BJ) ([5]; 100 μM): 5.00 percentage of positive control
LDH, Fibroblasts (BJ) ([5]; 150 μM): 4.47 percentage of positive control
LDH, Fibroblasts (BJ) ([5]; 200 μM): 14.72 percentage of positive control
LDH, Fibroblasts (BJ) ([5]; 250 μM): 28.31 percentage of positive control
Increase in the number of yellow wells compared to the reference level, TA1535 ([6]; 0.5 mM, + S9): 0.47
Increase in the number of yellow wells compared to the reference level, TA1535 ([6]; 0.5 mM, without S9): 0.92
Increase in the number of yellow wells compared to the reference level, TA1535 ([6]; 1.0 mM, + S9): 0.23
Increase in the number of yellow wells compared to the reference level, TA1535 ([6]; 1.0 mM, without S9): 0.55
Increase in the number of yellow wells compared to the reference level, TA1535 ([6]; 2.0 mM, + S9): 0.35
Increase in the number of yellow wells compared to the reference level, TA1535 ([6]; 2.0 mM, without S9): 1.10

Reference: US20250263376A1, “(E)-N-CINNAMOYLAMINOALKANOLS WITH MELANOGENESIS INHIBITORY ACTIVITY” (Uniwersytet Jagiellonski, priority 2024, published 2025)
